Values joined by “and” are separate entries in the source; they are usually repeats but may differ in a detail not shown here. Equal entries are not always repeated.
Tests used:
plasma protein = conditions: cited from earlier work
[1] = cited from earlier work
VEGFR = conditions: cited from earlier work
hepatocellular carcinoma [2] = assay: Time-to-tumor progression in HCC patients; format: in vivo, human; conditions: 37.5 mg q.d. with TACE (doxorubicin)
HCC tumors = assay: Tumor volume by DCE-MRI in HCC patients; format: in vivo, human; conditions: duration of the trial, vs baseline
hepatocellular carcinoma [3] = conditions: 50 mg q.d. in 4/2 weeks schedule, advanced HCC; cited from earlier work
hepatocellular carcinoma [4] = conditions: phase III, HCC patients, compared to sorafenib; cited from earlier work
[5] = Hematological toxicities in the phase II pilot study; format: in vivo, human; conditions: HCC patients, 37.5 mg q.d.
sVEGFR2 = assay: PD indirect response modeling of sVEGFR2 plasma concentrations; format: in vivo, human; conditions: HCC patients, following treatment, mean baseline 15.7 µg/L

Compound	fb, bound fraction to plasma protein (plasma protein)	Q/Fperipheral, intercompartmental clearance (RSE%) ([1]; fixed to literature value)	V2/Fperipheral, peripheral volume of distribution (RSE%) ([1]; fixed to literature value)	potency relative to parent drug (VEGFR)	ka, first-order absorption rate constant (RSE%) ([1]; fixed to literature value)	fM, fraction of drug metabolized into the active metabolite SU12662 ([1]; fixed)	median observed TTP (hepatocellular carcinoma [2])	HCC tumor volumes under treatment (HCC tumors)	median TTP (hepatocellular carcinoma [3]) [months]	primary overall survival endpoint (hepatocellular carcinoma [4])	toxicities (hepatocellular carcinoma [4])	hematological toxicities [5]	observed plasma concentrations of sVEGFR2 (sVEGFR2)
CCNCCNC(=O)c1c(C)[nH]c(/C=C2\C(=O)Nc3ccc(F)cc32)c1C [SU12662]	0.95	27.7 (26) L/h	345 (22) L	equipotent to the parent drug									
CCN(CC)CCNC(=O)c1c(C)[nH]c(/C=C2\C(=O)Nc3ccc(F)cc32)c1C [Sunitinib, Sunitinib malate]	0.9	6.37 (18) L/h	588 (8.7) L		0.195 (6.8) 1/h	0.21	7 months and 8 months	remained relatively unchanged compared to their baseline values	5.3	failed its primary OS endpoint	more frequent toxicities than sorafenib	absence of hematological toxicities	gradually decreased over time

— paper PMC5131886 (CPT: Pharmacometrics & Systems Pharmacology, 2016)
